The record followed here is patent US20060110401A1, “Mixture of peptides from c and ns3 proteins of the hepatitis c virus and applications thereof” (priority 2002, published 2006).

Like-named read-outs stand apart in the source and are kept apart here. Marks after values point to notes of the source that are not given here. Residues, ends and D or L forms follow the SMILES beside them. Some results are limits rather than exact numbers.

In one test the target is T1, HLA-DRB5 (DRB5*0101) (Homo sapiens, UniProt P01903+Q30154).
T1 construct: endogenous in cells; host or cells: homozygous EBV-transformed human B lymphocyte lines; immunopurified with antibody L243
Nature of the test: biochemical. It is filed as binding. The following applies: read-out: binds with good affinity to DRB5.

The next test has as its target HLA-DR11 (DRB1*1101) (Homo sapiens, UniProt P01903+P01911, A100R/A169T/A87E/I96F/K41T/L162R/M171V/P40S/Q125H/Q178H/Q39Y/Q99D/R42S/S66Y/T262R/V115G/W38E). In words: biochemical. It is filed as binding. The following applies: read-out: binds with good affinity to DR11.
The target of the next test is HLA-DR7 (DRB1*0701) (Homo sapiens, UniProt P01903+P01911, A100R/A102G/A103Q/D57E/D86V/E43K/F76Y/K127E/L162R/M171V/P40G/Q125H/Q99D/R33Q/R42Y/R54Q/S133A/S66F/T210M/V115G/Y107V/Y59L/Y89S). In words: biochemical. The class given is binding. The note with it: read-out: binds with good affinity to DR7.
A further test relates to DRB5. Nature of the test: DRB5.
The next test relates to DR1. In words: DR1.
Another test deals with DRB3. In words: DRB3.
In a further test the target is T2, HLA-DR15 (DRB1*1501) (Homo sapiens, UniProt P01903+P01911).
T2 construct: endogenous in cells; host or cells: homozygous EBV-transformed human B lymphocyte lines; immunopurified with antibody L243
In words: biochemical. The class given is binding. The following applies: DRB1*1501; read-out: binds with good affinity to DR15.

For the next test, the target named is T3, HLA-DR1 (DRB1*0101) (Homo sapiens, UniProt P01903+P01911, A100R/D57E/F55L/F60I/F76Y/I96L/L162R/M171V/P40L/Q125E/R42F/V115G/Y59C).
T3 construct: endogenous in cells; host or cells: homozygous EBV-transformed human B lymphocyte lines; immunopurified with antibody L243
Nature of the test: biochemical. The class given is binding. The following applies: for IC50: DRB1*0101.

Another test concerns DRB4. Nature of the test: DRB4. The text has this: Table printed on a drawing sheet, Figure 2
Where the first naming reader finds the target: head: DRB4

The test system of another test is DR15. Nature of the test: DR15.
The subject of the next test is DP402. In words: DP402.
In a further test the test system is DR4. Nature of the test: DR4.
In another test the target is T4, HLA-DRB4 (DRB4*0101) (Homo sapiens, UniProt P01903+P13762, G164S).
T4 construct: endogenous in cells; host or cells: homozygous EBV-transformed human B lymphocyte lines; immunopurified with antibody L243
Nature of the test: biochemical. The class given is binding.

The subject of another test is DP401. Nature of the test: DP401.
The test system of test [1] is T lymphocytes derived from PBMCs from patients chronically infected with HCV. The class given is cell-based, human.
The mark [2] stands for this setting: read-out: binds with good affinity to DR1.
The mark [3] stands for this setting: competition with biotinylated tracer HA 306-318, read-out: IC50, binding to HLA-DR1.
Where [4] appears, read: patient 067, supernatant 48 h, —: not detected.
Setting [5] is: patient 078, supernatant 48 h, —: not detected.
Where [6] appears, read: patient 093, supernatant 48 h, —: not detected.
[7] abbreviates: patient 630, supernatant 48 h, —: not detected.
Where [8] appears, read: patient 659, supernatant 48 h, —: not detected.
Setting [9] is: patient 815, supernatant 48 h, —: not detected.
The mark [10] stands for this setting: patient 862, supernatant 48 h, —: not detected.

HLA-DR11 (DRB1*1101), sequence (P01903 26-254 limits assumed, other chains not shown): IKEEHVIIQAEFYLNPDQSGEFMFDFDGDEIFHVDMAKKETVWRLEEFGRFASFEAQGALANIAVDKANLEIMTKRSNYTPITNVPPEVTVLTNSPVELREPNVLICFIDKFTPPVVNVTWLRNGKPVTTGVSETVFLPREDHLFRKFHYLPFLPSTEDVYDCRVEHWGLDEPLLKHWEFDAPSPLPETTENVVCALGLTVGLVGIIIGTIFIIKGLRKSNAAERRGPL

For `CC[C@H](C)[C@H](NC(=O)[C@H](Cc1ccc(O)cc1)NC(=O)CNC(=O)[C@H](CCSC)NC(=O)[C@H](CC(C)C)NC(=O)[C@H](CC(=O)O)NC(=O)[C@H](C)NC(=O)[C@H](Cc1ccccc1)NC(=O)CNC(=O)[C@H](C)NC(=O)[C@@H](N)[C@@H](C)O)C(=O)N1CCC[C@H]1C(=O)N[C@@H](CC(C)C)C(=O)N[C@H](C(=O)NCC(=O)N[C@@H](C)C(=O)N1CCC[C@H]1C(=O)N[C@@H](CC(C)C)C(=O)NCC(=O)NCC(=O)N[C@@H](C)C(=O)N[C@@H](C)C(=O)N[C@@H](CCCNC(=N)N)C(=O)O)C(C)C` [5C 127-149] (H-TAGFADLMGYIPLVGAPLGGAAR-OH; N-terminus and C-terminus assumed), the IC50 at HLA-DRB5 (DRB5*0101) is under 1 µM; at HLA-DR11 (DRB1*1101), under 1 µM; on HLA-DR7 (DRB1*0701) it was under 1 µM; in the test on DRB5, 0.003 µM; in the test with DR1, 0.002 µM; in the test on DRB3, over 100 µM. Further, the IC50 at HLA-DR15 (DRB1*1501) and on HLA-DR1 (DRB1*0101) (setting [2]) was under 1 µM each time.

With `CC[C@H](C)[C@H](NC(=O)[C@@H](NC(=O)[C@H](CCCNC(=N)N)NC(=O)[C@@H](NC(=O)CNC(=O)[C@H](C)NC(=O)CNC(=O)[C@H](Cc1c[nH]cn1)NC(=O)[C@H](Cc1ccc(O)cc1)NC(=O)[C@@H](NC(=O)[C@@H](NC(=O)[C@H](Cc1c[nH]c2ccccc12)NC(=O)[C@H](C)NC(=O)[C@@H](NC(=O)CN)C(C)C)[C@@H](C)O)C(C)C)[C@@H](C)O)[C@@H](C)O)C(=O)N[C@@H](C)C(=O)N[C@@H](CO)C(=O)N1CCC[C@H]1C(=O)O` [11N 1076-1093] (H-GVAWTVYHGAGTRTIASP-OH; N-terminus and C-terminus assumed), the IC50 on HLA-DRB5 (DRB5*0101) was under 1 µM; on HLA-DR11 (DRB1*1101) it was under 1 µM; on HLA-DR7 (DRB1*0701) it was under 1 µM; in the test on DRB4 it was 60 µM; in the test on DRB5, 0.1 µM; in the test on DRB3, 6 µM. The IC50 on HLA-DR15 (DRB1*1501) and at HLA-DR1 (DRB1*0101) (setting [2]) was under 1 µM each time.

Turning to `CC[C@H](C)[C@H](NC(=O)[C@@H](NC(=O)[C@@H]1CCCN1C(=O)CNC(=O)[C@@H](N)CCCCN)C(C)C)C(=O)N[C@@H](CCC(N)=O)C(=O)N[C@@H](CCSC)C(=O)N[C@@H](Cc1ccc(O)cc1)C(=O)N[C@H](C(=O)N[C@@H](CC(N)=O)C(=O)N[C@H](C(=O)N[C@@H](CC(=O)O)C(=O)N[C@@H](CCC(N)=O)C(=O)N[C@@H](CC(=O)O)C(=O)N[C@@H](CC(C)C)C(=O)N[C@H](C(=O)NCC(=O)N[C@@H](Cc1c[nH]c2ccccc12)C(=O)N1CCC[C@H]1C(=O)N[C@@H](C)C(=O)N1CCC[C@H]1C(=O)N[C@@H](CCC(N)=O)C(=O)NCC(=O)N[C@@H](CO)C(=O)N[C@@H](CCCNC(=N)N)C(=O)N[C@@H](CO)C(=O)O)C(C)C)C(C)C)[C@@H](C)O` [12N 1094-1119] (H-KGPVIQMYTNVDQDLVGWPAPQGSRS-OH; N-terminus and C-terminus assumed), the IC50 was 0.048 µM in the test with DR15; over 10 µM with DR1; over 10 µM in the test on DRB3; 3 µM in the test with DP402; over 10 µM at HLA-DR1 (DRB1*0101) (setting [3]). In addition, the “affinity for HLA-DR1 (in words)” value on HLA-DR1 (DRB1*0101) (legend of FIG. 4) is “low affinity”.

For `CC[C@H](C)[C@H](NC(=O)[C@@H]1CCCN1C(=O)[C@H](CCCNC(=N)N)NC(=O)[C@@H]1CCCN1C(=O)[C@H](CO)NC(=O)[C@H](CC(C)C)NC(=O)[C@H](CC(C)C)NC(=O)[C@H](CO)NC(=O)CNC(=O)[C@@H](N)CCCNC(=N)N)C(=O)N[C@@H](CO)C(=O)N[C@@H](Cc1ccc(O)cc1)C(=O)N[C@@H](CC(C)C)C(=O)N[C@@H](CCCCN)C(=O)NCC(=O)N[C@@H](CO)C(=O)N[C@@H](CO)C(=O)NCC(=O)NCC(=O)N1CCC[C@H]1C(=O)N[C@@H](CC(C)C)C(=O)N[C@@H](CC(C)C)C(=O)N[C@@H](C)C(=O)N1CCC[C@H]1C(=O)O` [14N 1149-1172] (H-RGSLLSPRPISYLKGSSGGPLLAP-OH; N-terminus and C-terminus assumed), the IC50 at HLA-DRB5 (DRB5*0101) is under 1 µM; on HLA-DR7 (DRB1*0701), under 1 µM; with DRB4, 0.1 µM; with DR4 it was 9 µM; at HLA-DRB4 (DRB4*0101) (read-out: binds with good affinity to DRB4) it was under 1 µM; with DR1, 0.008 µM. Moreover, the results for the IC50 in the test on DP402, at HLA-DR15 (DRB1*1501) and at HLA-DR1 (DRB1*0101) (setting [2]) were over 100 µM, under 1 µM and under 1 µM, respectively.

Regarding `CC[C@H](C)[C@H](NC(=O)CNC(=O)[C@H](CC(C)C)NC(=O)[C@H](C)NC(=O)[C@@H](NC(=O)[C@H](CC(C)C)NC(=O)[C@H](CCCCN)NC(=O)[C@H](C)NC(=O)[C@H](C)N)C(C)C)C(=O)N[C@@H](CC(N)=O)C(=O)N[C@@H](C)C(=O)N[C@H](C(=O)N[C@@H](C)C(=O)N[C@@H](Cc1ccc(O)cc1)C(=O)N[C@@H](Cc1ccc(O)cc1)C(=O)N[C@@H](CCCNC(=N)N)C(=O)NCC(=O)N[C@@H](CC(C)C)C(=O)N[C@@H](CC(=O)O)C(=O)N[C@H](C(=O)N[C@@H](CO)C(=O)N[C@H](C(=O)N[C@H](C(=O)N1CCC[C@H]1C(=O)N[C@H](C(=O)N[C@@H](CO)C(=O)NCC(=O)N[C@@H](CC(=O)O)C(=O)N[C@H](C(=O)O)C(C)C)[C@@H](C)O)[C@@H](C)CC)C(C)C)C(C)C)C(C)C` [24N 1404-1432], the results for the IC50 in the test with DP401, in the test with DR1 and with DP402 were 32.7 µM, 0.05 µM and 7.04 µM, respectively.

Consider `CC[C@H](C)[C@H](NC(=O)[C@H](Cc1c[nH]cn1)NC(=O)[C@@H](NC(=O)[C@H](CC(C)C)NC(=O)CNC(=O)[C@@H](N)[C@@H](C)O)[C@@H](C)O)C(=O)N[C@@H](CC(=O)O)C(=O)N[C@@H](C)C(=O)N[C@@H](Cc1c[nH]cn1)C(=O)N[C@@H](Cc1ccccc1)C(=O)N[C@@H](CC(C)C)C(=O)N[C@@H](CO)C(=O)N[C@@H](CCC(N)=O)C(=O)N[C@H](C(=O)N[C@@H](CCCCN)C(=O)O)[C@@H](C)O` [29N 1563-1577], for which the IC50 was 40 µM on HLA-DRB4 (DRB4*0101) (tracer E2/E168, read-out: IC50, binding to HLA-DRB4) and 0.008 µM at HLA-DR1 (DRB1*0101) (setting [3]).

In the case of phytohemagglutinin [PHA], the IFNγ in test [1] (setting [4]) is 2447 pg/mL; in test [1] (setting [5]) it was 2249 pg/mL; in test [1] (setting [6]) it was 8542 pg/mL; in test [1] (setting [7]), 474 pg/mL; in [1] (setting [8]) it was “— 187 pg/ml”; in test [1] (setting [9]), 1979 pg/mL. Moreover, in [1] (setting [10]), the IFNγ stood at 9902 pg/mL. For the same molecule, the IL2 was 1337 pg/mL in test [1] (setting [4]); 207 pg/mL in test [1] (setting [5]); 1402* pg/ml in test [1] (patient 093, assay at 24 h instead of 48 h); 125 pg/mL in [1] (patient 342, supernatant 48 h, —: not detected); 18874 pg/mL in [1] (setting [7]); 153 — pg/ml in [1] (setting [8]). For the same molecule, the IL2 in test [1] (setting [9]) came out at 1002 pg/mL; in test [1] (setting [10]), 60 pg/mL. Besides, the IL4 in test [1] (setting [4]) was 632 pg/mL; in [1] (setting [5]), 55 pg/mL; in [1] (setting [6]), 127 pg/mL; in test [1] (setting [7]), 251 pg/mL; in [1] (setting [8]), 453 pg/mL; in [1] (setting [9]), 5638 pg/mL. The molecule also came in with an IL4 in [1] (setting [10]) of 9 pg/mL. The IL10 amounted to 665 pg/mL in test [1] (setting [4]); 207 pg/mL in test [1] (setting [5]); 8551 pg/mL in test [1] (setting [6]); 242 pg/mL in test [1] (setting [7]); 182 pg/mL in test [1] (setting [8]); 497 pg/mL in test [1] (setting [9]).

tetanus toxin [TT] showed an IL4 in [1] of 24 pg/mL.
